Biological target: T1, Estrogen receptor (Homo sapiens, UniProt P03372)
T1 sequence (P03372 whole entry): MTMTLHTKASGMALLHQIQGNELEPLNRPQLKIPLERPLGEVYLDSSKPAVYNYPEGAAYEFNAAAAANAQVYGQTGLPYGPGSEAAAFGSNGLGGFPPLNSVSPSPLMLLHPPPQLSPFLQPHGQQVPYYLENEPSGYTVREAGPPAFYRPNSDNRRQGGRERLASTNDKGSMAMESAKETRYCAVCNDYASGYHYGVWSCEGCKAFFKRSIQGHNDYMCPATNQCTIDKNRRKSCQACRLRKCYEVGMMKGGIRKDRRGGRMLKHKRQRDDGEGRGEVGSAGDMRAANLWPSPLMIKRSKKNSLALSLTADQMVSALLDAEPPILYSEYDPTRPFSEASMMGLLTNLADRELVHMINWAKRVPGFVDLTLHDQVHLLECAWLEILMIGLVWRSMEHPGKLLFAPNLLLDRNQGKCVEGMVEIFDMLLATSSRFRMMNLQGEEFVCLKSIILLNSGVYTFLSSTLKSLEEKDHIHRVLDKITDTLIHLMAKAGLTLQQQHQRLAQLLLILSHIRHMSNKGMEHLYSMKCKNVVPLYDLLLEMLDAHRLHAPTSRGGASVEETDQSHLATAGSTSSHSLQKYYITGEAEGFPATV
Assay: Binding constant for Estrogen receptor alpha

CC/C(=C(/CC)c1ccc(OCCCC(=O)NCc2ccc(-c3c4ccc(=O)cc-4oc4cc(O)ccc34)c(C(=O)O)c2)cc1)c1ccc(O)cc1 showed a Kd of 5.8 nM.

— ChEMBL document CHEMBL1135566, “Synthesis of a novel fluorescent probe for estrogen receptor” (Bioorg Med Chem Lett, 2002)
